Source: US6737383B1, “Herbicidal oxadiazolidines” (priority 1999, dated 2004)

Legend:
itchgrass = experiment: Test D itchgrass; assay type: in vivo, Rottboellia exaltata; conditions: Preemergence, 0 to 100 scale
Method in brief: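 Scoring used a 0–100 visual injury scale, with 0 meaning no effect and 100 complete control, assessed 14–21 days after application alongside untreated pots. Preemergence treatments went onto sandy loam surfaces of separately potted seeds within a day of sowing.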

surinam grass = experiment: Test D surinam grass; assay type: in vivo, Brachiaria decumbens; conditions: Preemergence, 0 to 100 scale
Method in brief: (§1)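 Visual injury ratings, 0 = no injury to 100 = complete control, taken 14 to 21 days after treatment. Test chemicals were in a surfactant-containing non-phytotoxic solvent; preemergence treatments went onto the sandy loam surface of seeded greenhouse pots within one day of sowing.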

Spanishneedles = experiment: Test D Spanishneedles; assay type: in vivo, Bidens bipinnata; conditions: Preemergence, 0 to 100 scale
Method in brief: as §1

wild poinsettia = experiment: Test C postemergence wild poinsettia; assay type: in vivo, Euphorbia heterophylla; conditions: 0 to 100 scale, 0 no effect, 100 complete control
Method in brief: (§2)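 Visual injury scored 0-100 (100 = complete control) versus untreated plants roughly 14 to 21 days after treatment. Plants were grown to suitable size in 60:40 sandy loam and potting mix, then treated postemergence with surfactant-containing solvent formulations.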

common pursiane = experiment: Test D common purslane; assay type: in vivo, Portulaca oleracea; conditions: Preemergence, 0 to 100 scale
Method in brief: as §1

purple nutsedge = experiment: Test D purple nutsedge; assay type: in vivo, Cyperus rotundus; conditions: Preemergence, 0 to 100 scale
Method in brief: as §1

common ragweed = experiment: Test D common ragweed; assay type: in vivo, Ambrosia elatior; conditions: Preemergence, 0 to 100 scale
Method in brief: as §1

bermuda-grass = experiment: Test D bermudagrass; assay type: in vivo, Cynodon dactylon; conditions: Preemergence, 0 to 100 scale
Method in brief: as §1

large crabgrass = experiment: Test D large crabgrass; assay type: in vivo, Digitaria sanguinalis; conditions: Preemergence, 0 to 100 scale
Method in brief: as §1

johnsongrass = experiment: Test C postemergence johnsongrass; assay type: in vivo, Sorghum halepense; conditions: 0 to 100 scale, 0 no effect, 100 complete control
Method in brief: as §2

goosegrass = experiment: Test D goosegrass; assay type: in vivo, Eleusine indica; conditions: Preemergence, 0 to 100 scale
Method in brief: as §1

dallisgrass = experiment: Test D dallisgrass; assay type: in vivo, Paspalum dilatatum; conditions: Preemergence, 0 to 100 scale
Method in brief: as §1

common groundsel = experiment: Test D common groundsel; assay type: in vivo, Senecio vulgaris; conditions: Preemergence, 0 to 100 scale
Method in brief: as §1

Johnson grass = experiment: Test D Johnson grass; assay type: in vivo, Sorghum halepense; conditions: Preemergence, 0 to 100 scale
Method in brief: as §1

Alexandergrass = experiment: Test D Alexandergrass; assay type: in vivo, Brachiaria plantaginea; conditions: Preemergence, 0 to 100 scale
Method in brief: as §1

guineagrass = experiment: Test D guineagrass; assay type: in vivo, Panicum maximum; conditions: Preemergence, 0 to 100 scale
Method in brief: as §1

sandbur = experiment: Test D sandbur; assay type: in vivo, Cenchrus echinatus; conditions: Preemergence, 0 to 100 scale
Method in brief: as §1

Green foxtail = experiment: Test D green foxtail; assay type: in vivo; conditions: Preemergence, 0 to 100 scale
Method in brief: as §1

[1] = Rate 16 g/ha, 0 no injury, 100 complete control
[2] = Rate 32 g/ha, 0 no injury, 100 complete control
[3] = Rate 64 g/ha, 0 no injury, 100 complete control
[4] = Rate 125 g/ha, 0 no injury, 100 complete control

SMILES: C=CCn1c(=O)on(C(=O)N(c2ccc(F)cc2)C(C)C)c1=O [Compound 146]
- Plant response rating, Itchgrass (itchgrass; [1]): 85
- Plant response rating, Itchgrass (itchgrass; [2]): 90
- Plant response rating, Itchgrass (itchgrass; [3]): 90
- Plant response rating, Itchgrass (itchgrass; [4]): 90
- Plant response rating, Itchgrass (itchgrass; Rate 250 g/ha): 100
- Plant response rating, Itchgrass (itchgrass; Rate 500 g/ha): 100
- Plant response rating Surinam grass (surinam grass; [1]): 40
- Plant response rating Surinam grass (surinam grass; [2]): 60
- Surinam grass plant response rating (surinam grass; [3]): 60
- Surinam grass plant response rating (surinam grass; [4]): 100
- Plant response rating Surinam grass (surinam grass; Rate 250 g/ha): 100
- Plant response rating Surinam grass (surinam grass; Rate 500 g/ha): 100
- Plant response rating, Spanishneedles (Spanishneedles; [1]): 0
- Plant response rating, Spanishneedles (Spanishneedles; [2]): 75
- Spanishneedles plant response rating (Spanishneedles; [3]): 85
- Spanishneedles plant response rating (Spanishneedles; [4]): 90
- Plant response rating, Spanishneedles (Spanishneedles; Rate 250 g/ha): 100
- Plant response rating, Spanishneedles (Spanishneedles; Rate 500 g/ha): 100
- Plant response rating Wild poinsettia (wild poinsettia; Rate 140 g/ha): 0
- Plant response rating Wild poinsettia (wild poinsettia; Rate 280 g/ha): 40
- Plant response rating Wild poinsettia (wild poinsettia; Rate 560 g/ha): 50
- Plant response rating Wild poinsettia (wild poinsettia; Rate 1120 g/ha): 70
- Plant response rating, C. purslane (common pursiane; [1]): 0
- Plant response rating, C. purslane (common pursiane; [2]): 0
- Plant response rating, C. purslane (common pursiane; [3]): 0
- Plant response rating, C. purslane (common pursiane; [4]): 0
- Plant response rating, C. purslane (common pursiane; Rate 250 g/ha): 0
- Plant response rating, C. purslane (common pursiane; Rate 500 g/ha): 0
- Plant response rating, Purple nutsedge (purple nutsedge; [1]): 40
- Plant response rating, Purple nutsedge (purple nutsedge; [2]): 40
- Purple nutsedge plant response rating (purple nutsedge; [3]): 65
- Purple nutsedge plant response rating (purple nutsedge; [4]): 70
- Plant response rating, Purple nutsedge (purple nutsedge; Rate 250 g/ha): 75
- Plant response rating, Purple nutsedge (purple nutsedge; Rate 500 g/ha): 100
- Plant response rating, C. ragweed (common ragweed; [1]): 0
- Plant response rating, C. ragweed (common ragweed; [2]): 0
- Plant response rating, C. ragweed (common ragweed; [3]): 0
- Plant response rating, C. ragweed (common ragweed; [4]): 0
- Plant response rating, C. ragweed (common ragweed; Rate 250 g/ha): 60
- Plant response rating, C. ragweed (common ragweed; Rate 500 g/ha): 75
- Plant response rating, Bermudagrass (bermuda-grass; [1]): 65
- Plant response rating, Bermudagrass (bermuda-grass; [2]): 100
- Plant response rating, Bermudagrass (bermuda-grass; [3]): 95
- Plant response rating, Bermudagrass (bermuda-grass; [4]): 90
- Plant response rating, Bermudagrass (bermuda-grass; Rate 250 g/ha): 90
- Plant response rating, Bermudagrass (bermuda-grass; Rate 500 g/ha): 100
- Plant response rating Large crabgrass (large crabgrass; [1]): 90
- Plant response rating Large crabgrass (large crabgrass; [2]): 100
- Plant response rating Large crabgrass (large crabgrass; [3]): 100
- Plant response rating Large crabgrass (large crabgrass; [4]): 100
- Plant response rating Large crabgrass (large crabgrass; Rate 250 g/ha): 100
- Plant response rating Large crabgrass (large crabgrass; Rate 500 g/ha): 100
- Plant response rating Johnsongrass (johnsongrass; Rate 140 g/ha): 0
- Plant response rating Johnsongrass (johnsongrass; Rate 280 g/ha): 30
- Plant response rating Johnsongrass (johnsongrass; Rate 560 g/ha): 60
- Plant response rating Johnsongrass (johnsongrass; Rate 1120 g/ha): 90
- Plant response rating, Goosegrass (goosegrass; [1]): 90
- Plant response rating, Goosegrass (goosegrass; [2]): 98
- Plant response rating, Goosegrass (goosegrass; [3]): 100
- Plant response rating, Goosegrass (goosegrass; [4]): 100
- Plant response rating, Goosegrass (goosegrass; Rate 250 g/ha): 100
- Plant response rating, Goosegrass (goosegrass; Rate 500 g/ha): 100
- Plant response rating, Dallisgrass (dallisgrass; [1]): 80
- Plant response rating, Dallisgrass (dallisgrass; [2]): 90
- Plant response rating, Dallisgrass (dallisgrass; [3]): 98
- Plant response rating, Dallisgrass (dallisgrass; [4]): 100
- Plant response rating, Dallisgrass (dallisgrass; Rate 250 g/ha): 100
- Plant response rating, Dallisgrass (dallisgrass; Rate 500 g/ha): 100
- Plant response rating, Com. groundsel (common groundsel; [1]): 65
- Plant response rating, Com. groundsel (common groundsel; [2]): 0
- Plant response rating, Com. groundsel (common groundsel; [3]): 0
- Plant response rating, Com. groundsel (common groundsel; [4]): 75
- Plant response rating, Com. groundsel (common groundsel; Rate 250 g/ha): 85
- Plant response rating, Com. groundsel (common groundsel; Rate 500 g/ha): 100
- Plant response rating Johnsongrass (Johnson grass; [1]): 60
- Plant response rating Johnsongrass (Johnson grass; [2]): 60
- Plant response rating Johnsongrass (Johnson grass; [3]): 60
- Plant response rating Johnsongrass (Johnson grass; [4]): 80
- Plant response rating Johnsongrass (Johnson grass; Rate 250 g/ha): 90
- Plant response rating Johnsongrass (Johnson grass; Rate 500 g/ha): 95
- Plant response rating, Alexandergrass (Alexandergrass; [1]): 65
- Plant response rating, Alexandergrass (Alexandergrass; [2]): 85
- Plant response rating, Alexandergrass (Alexandergrass; [3]): 95
- Plant response rating, Alexandergrass (Alexandergrass; [4]): 98
- Plant response rating, Alexandergrass (Alexandergrass; Rate 250 g/ha): 100
- Plant response rating, Alexandergrass (Alexandergrass; Rate 500 g/ha): 100
- Plant response rating, Guineagrass (guineagrass; [1]): 90
- Plant response rating, Guineagrass (guineagrass; [2]): 95
- Plant response rating, Guineagrass (guineagrass; [3]): 100
- Plant response rating, Guineagrass (guineagrass; [4]): 100
- Plant response rating, Guineagrass (guineagrass; Rate 250 g/ha): 100
- Plant response rating, Guineagrass (guineagrass; Rate 500 g/ha): 100
- Plant response rating, Sandbur (sandbur; [1]): 0
- Plant response rating, Sandbur (sandbur; [2]): 85
- Sandbur plant response rating (sandbur; [3]): 100
- Sandbur plant response rating (sandbur; [4]): 100
- Plant response rating, Sandbur (sandbur; Rate 250 g/ha): 100
- Plant response rating, Sandbur (sandbur; Rate 500 g/ha): 100
- Green foxtail plant response rating (Green foxtail; [3]): 100
- Plant response rating, Green foxtail (Green foxtail; [3]): 100
- Green foxtail plant response rating (Green foxtail; [4]): 100
- Plant response rating, Green foxtail (Green foxtail; [4]): 100
- Plant response rating, Green foxtail (Green foxtail; Rate 250 g/ha): 100
- Plant response rating, Green foxtail (Green foxtail; Rate 500 g/ha): 100
